Data from EP4741392A1, “1H-PYRAZOLO[4,3-C]PYRIDINE COMPOUND, AND COMPOSITION THEREOF AND USE THEREOF” (Shenzhen TargetRx Co., Ltd., priority 2023, dated 2025).
pIC50: −log10 of the molar value.

Assays:
Assay in all cases: Kinase activity inhibition assay (HTRF TK Kit), selectivity
Format in all cases: biochemical
TEC = biological target: T1, TEC (Homo sapiens, UniProt P42680)
T1 construct: purchased Carna 08-182
T1 sequence (P42680 1-631): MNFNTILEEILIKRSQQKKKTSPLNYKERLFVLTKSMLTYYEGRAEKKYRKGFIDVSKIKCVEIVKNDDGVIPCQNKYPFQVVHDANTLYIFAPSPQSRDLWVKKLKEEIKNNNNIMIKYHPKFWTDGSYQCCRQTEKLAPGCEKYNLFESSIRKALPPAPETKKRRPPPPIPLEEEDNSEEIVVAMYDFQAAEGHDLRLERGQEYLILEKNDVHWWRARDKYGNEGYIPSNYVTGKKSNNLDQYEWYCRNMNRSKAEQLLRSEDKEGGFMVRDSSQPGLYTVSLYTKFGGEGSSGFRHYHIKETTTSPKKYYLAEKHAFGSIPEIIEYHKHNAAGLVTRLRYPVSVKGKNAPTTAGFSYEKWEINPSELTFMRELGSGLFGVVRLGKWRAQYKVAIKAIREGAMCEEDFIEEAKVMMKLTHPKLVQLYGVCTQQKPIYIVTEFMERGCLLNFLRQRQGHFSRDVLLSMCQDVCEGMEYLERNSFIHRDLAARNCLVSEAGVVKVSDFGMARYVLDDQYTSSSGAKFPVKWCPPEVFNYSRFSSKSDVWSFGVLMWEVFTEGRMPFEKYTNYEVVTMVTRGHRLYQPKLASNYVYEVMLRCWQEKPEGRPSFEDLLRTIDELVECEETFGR
From the text: (§1) In this assay, the HTRF TK Kit (Catalog No. 62TK0PEC) provided by Cisbio was used to detect the inhibitory activity of compounds on BTK kinase, BTK T474I kinase and BTK C481 S kinase and the selectivity of compounds relative to EGFR, ITK and TEC kinases.
(§2) Reagents and consumables: BTK kinase (Invitrogen, Catalog No. PV3587), BTK C481S (Carna, Product No. 08-547), BTK T474I(SignalChem Product No. B10-12HH), ITK (Cama, Product No. 08-181), EGFR (Cama, Product No. 08-115), TEC (Carna, Product No. 08-182), HTRF-TK kit (Cisbio, Product No. 62TK0PEC), MgCl2 (Sigma, Product No. M1028), MnCl2 (Sigma, Product No. M1787), DTT (Sigma, Product No. D0632), ATP (Sigma, Product No. A7699-1g), DMSO (Sigma, Product No. D2650), 384-well plate (PE, Product No. 6008280).
(§3) The entire operation steps were carried out on ice, and the total reaction volume was 10µL. A compound (4µL), substrate and ATP (4µL), and kinase (2µL) were added in sequence to a 384-well plate, and the plate was shaken for 30 seconds. The mixture was reacted at room temperature for an appropriate time, and then the detection reagent was added. The resulting mixture was reacted at room temperature for 1 hour, and then the plate was assayed with a microplate reader. The specific steps were as follows: • a) a 1 × kinase buffer solution required for the kinase assay was calculated according to the amount of the test compound, and prepared as needed; • b) 2.5 × working concentration of a compound was prepared, 100-fold gradient concentration solutions of a compound were diluted by 40 × to the desired concentration, respectively, mixed well, and added to each well at 4 µL per well; • c) 5 × working concentration of the substrate and ATP were prepared, mixed in a ratio of 1:1 before being added to the 384-well plate, and added to each well at 4 µL per well; • d) 5 × working concentration of a kinase was prepared, 2 µL of which was added to each well; • e) the plate was shaken on a microplate shaker for 30 seconds, sealed with a sealing membrane, and the mixture was reacted at room temperature for an appropriate time; • f) 4 × working concentration of streptavidin XL-665 and TK antibody-cryptate compound were prepared, mixed in a ratio of 1:1 before being added to the 384-well plate, and added to each well at 10 µL per well; • g) the mixture was reacted at room temperature for 1 hour, and then the plate was read; • h) the wells with only substrate, ATP and 1% DMSO added but no kinase were blank control wells, and the wells with only substrate, ATP, 1% DMSO and kinase were positive control wells.
(§4) Readings: The values of 620 nm (cryptate) and 665 nm (XL665) were read with a BioTek Synerg Neo2 microplate reader, the ratio of 665/620 for each well was calculated, and the data were exported.
(§5) Data analysis: IC50 was calculated using GraphPad Prism 7.0 software.
(§6) The IC50 (half-maximal inhibitory concentration) of the compound was obtained using the following nonlinear fitting formula: Y = Bottom + (Top−Bottom)/(1+10^(∧)((LogIC50−X)*HillSlope)) [formula] • X: Log value of the compound concentration • Y: Inhibition rate (% inhibition) • Top: Maximum response • Bottom: Baseline response • HillSlope: Slope of the curve
(§7) The formula for calculating kinase inhibition rate (inhibition rate %) was: [formula]

EGFR = biological target: T2, EGFR (Homo sapiens, UniProt P00533)
T2 construct: purchased Carna 08-115
T2 sequence (P00533 669-1210 limits assumed): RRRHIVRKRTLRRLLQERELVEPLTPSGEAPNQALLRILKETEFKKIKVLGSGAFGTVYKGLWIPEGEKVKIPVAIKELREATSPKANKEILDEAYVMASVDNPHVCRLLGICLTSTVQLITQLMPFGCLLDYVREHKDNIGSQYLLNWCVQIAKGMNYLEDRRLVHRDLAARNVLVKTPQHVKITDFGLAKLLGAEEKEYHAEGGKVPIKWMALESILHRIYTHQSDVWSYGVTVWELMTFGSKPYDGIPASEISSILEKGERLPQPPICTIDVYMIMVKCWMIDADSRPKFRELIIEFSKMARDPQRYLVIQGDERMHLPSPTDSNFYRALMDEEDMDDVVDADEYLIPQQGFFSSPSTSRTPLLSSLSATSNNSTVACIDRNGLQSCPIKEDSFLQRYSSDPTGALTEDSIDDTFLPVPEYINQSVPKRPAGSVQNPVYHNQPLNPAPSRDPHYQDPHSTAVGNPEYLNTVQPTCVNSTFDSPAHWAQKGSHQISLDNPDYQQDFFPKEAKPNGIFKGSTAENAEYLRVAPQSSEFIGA
From the text: as §1, §2, §3, §4, §5, §6, §7

ITK = biological target: T3, ITK (Homo sapiens, UniProt Q08881)
T3 construct: purchased Carna 08-181
T3 sequence (Q08881 1-620): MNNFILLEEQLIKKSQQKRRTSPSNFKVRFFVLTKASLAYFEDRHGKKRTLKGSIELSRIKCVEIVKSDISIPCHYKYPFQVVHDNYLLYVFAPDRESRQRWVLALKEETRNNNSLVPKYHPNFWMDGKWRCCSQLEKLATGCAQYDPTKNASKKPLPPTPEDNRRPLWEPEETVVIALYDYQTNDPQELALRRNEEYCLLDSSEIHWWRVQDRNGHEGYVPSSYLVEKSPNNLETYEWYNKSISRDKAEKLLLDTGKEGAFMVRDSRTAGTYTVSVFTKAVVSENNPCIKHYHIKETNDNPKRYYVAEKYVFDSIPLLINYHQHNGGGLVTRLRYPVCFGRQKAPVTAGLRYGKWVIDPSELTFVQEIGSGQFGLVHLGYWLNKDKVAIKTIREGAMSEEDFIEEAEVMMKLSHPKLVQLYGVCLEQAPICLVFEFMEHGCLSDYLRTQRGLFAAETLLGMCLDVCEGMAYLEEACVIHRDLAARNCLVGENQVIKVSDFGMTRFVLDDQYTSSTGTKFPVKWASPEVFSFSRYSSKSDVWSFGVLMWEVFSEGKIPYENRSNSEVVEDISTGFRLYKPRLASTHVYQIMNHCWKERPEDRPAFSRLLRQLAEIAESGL
From the text: as §1, §2, §3, §4, §5, §6, §7

Row | Compound | pIC50 (TEC) | pIC50 (EGFR) | pIC50 (ITK)
1 | COc1ccc(F)cc1C(=O)NCc1ccc(-c2ncc(-c3cnccn3)c3[nH]nc(N)c23)cc1 [Example 18, N-(4-(3-amino-7-(pyrazin-2-yl)-1H-pyrazolo[4,3-c]pyridin-4-yl)benzyl)-5-fluoro-2-methoxybenzamide] | 6.30 to 7.30 | < 6.30 | < 6.30
2 | COc1ccc(F)cc1C(=O)NCc1ccc(-c2ncc(-c3ccc4c(n3)nc3n4C(C)COC3)c3[nH]nc(N)c23)cc1 (stereo not drawn) [Example 103, N-(4-(3-amino-7-(6-methyl-6,7-dihydro-9H-pyrido[2',3':4,5]imidazo[2,1-c][1,4]oxazin-2-yl)-1H-pyrazolo[4,3-c]pyridin-4-yl)benzyl)-5-fluoro-2-methoxybenzamide] | < 6.30 | 6.30 to 7.30 | < 6.30
3 | COc1ccc(F)cc1C(=O)NCc1ccc(-c2ncc(-c3cc4ncccn4n3)c3[nH]nc(N)c23)cc1 [Example 44, N-(4-(3-amino-7-(pyrazolo[1,5-a]pyrimidin-2-yl)-1H-pyrazolo[4,3-c]pyridin-4-yl)benzyl)-5-fluoro-2-methoxybenzamide] | 7.30 to 8.30 | 7.30 to 8.30 | 6.30 to 7.30
4 | COc1ccc(F)cc1C(=O)NCc1ccc(-c2ncc(-c3ncc(F)cn3)c3[nH]nc(N)c23)cc1 [Example 36, N-(4-(3-amino-7-(5-fluoropyrimidin-2-yl)-1H-pyrazolo[4,3-c]pyridin-4-yl)benzyl)-5-fluoro-2-methoxybenzamide] | 6.30 to 7.30 | 6.30 to 7.30 | < 6.30
5 | COc1ccc(F)cc1C(=O)NCc1ccc(-c2ncc(-c3cc4n(n3)CCN(C)C4)c3[nH]nc(N)c23)cc1 [Example 71, N-(4-(3-amino-7-(5-methyl-4,5,6,7-tetrahydropyrazolo[1,5-a]pyrazin-2-yl)-1H-pyrazolo[4,3-c]pyridin-4-yl)benzyl)-5-fluoro-2-methoxybenzamide] | 7.30 to 8.30 | 7.30 to 8.30 | 6.30 to 7.30
6 | CCOC(=O)c1cnc2cc(-c3cnc(-c4ccc(CNC(=O)c5cc(F)ccc5OC)cc4)c4c(N)n[nH]c34)nn2c1 [Example 45, ethyl 2-(3-amino-4-(4-((5-fluoro-2-methoxybenzoylamino)methyl)phenyl)-1H-pyrazolo[4,3-c]pyridin-7-yl)pyrazolo[1,5-a]pyrimidine-6-carboxylate] | 6.30 to 7.30 | 6.30 to 7.30 | < 6.30
7 | COc1ccc(F)cc1C(=O)NCc1ccc(-c2ncc(-c3ccc(NC(=O)C4CC4)cn3)c3[nH]nc(N)c23)cc1 [Example 79, N-(4-(3-amino-7-(5-(cyclopropaneformamido)pyridin-2-yl)-1H-pyrazolo[4,3-c]pyridin-4-yl)benzyl)-5-fluoro-2-methoxybenzamide] | < 6.30 | < 6.30 | < 6.30
8 | COc1ccc(F)cc1C(=O)NCc1ccc(-c2ncc(-c3ncc(C(F)(F)F)cn3)c3[nH]nc(N)c23)cc1 [Example 42, N-(4-(3-amino-7-(5-(trifluoromethyl)pyrimidin-2-yl)-1H-pyrazolo[4,3-c]pyridin-4-yl)benzyl)-5-fluoro-2-methoxybenzamide] | 6.30 to 7.30 | < 6.30 | < 6.30
9 | COc1ccc(F)cc1C(=O)NCc1ccc(-c2ncc(-c3ccc(C(=O)N4C[C@H](C)O[C@@H](C)C4)cn3)c3[nH]nc(N)c23)cc1 [Example 53, N-(4-(3-amino-7-(5-((2S,6S)-2,6-dimethylmorpholine-4-carbonyl)pyridin-2-yl)-1H-pyrazolo[4,3-c]pyridin-4-yl)benzyl)-5-fluoro-2-methoxybenzamide] | 7.30 to 8.30 | 6.30 to 7.30 | 6.30 to 7.30

Continued, values first:

Row | pIC50 (TEC) | pIC50 (EGFR) | pIC50 (ITK) | Compound
10 | 6.30 to 7.30 | 6.30 to 7.30 | < 6.30 | COc1ccc(F)cc1C(=O)NCc1ccc(-c2nc(C(C)C(F)(F)F)cc3[nH]nc(N)c23)cc1 (single isomer, unassigned) [Example 2, N-(4-(3-amino-6-(1,1,1-trifluoropropan-2-yl)-1H-pyrazolo[4,3-c]pyridin-4-yl)benzyl)-5-fluoro-2-methoxybenzamide]
11 | < 6.30 | 7.30 to 8.30 | 6.30 to 7.30 | COc1ccc(F)cc1C(=O)NCc1ccc(-c2ncc(-c3ccc(N4CCN(C)C[C@@H]4C)cn3)c3[nH]nc(N)c23)cc1 [Example 74, (S)-N-(-4-(3-amino-7-(5-(2,4-dimethylpiperazin-1-yl)pyridin-2-yl) 1H-pyrazolo[4,3-c]pyridin-4-yl)benzyl)-5-fluoro-2-methoxybenzamide]
12 | 6.30 to 7.30 | 6.30 to 7.30 | < 6.30 | COc1ccc(F)cc1C(=O)NCc1ccc(-c2nc(C3CCOCC3)cc3[nH]nc(N)c23)cc1 [Example 115, N-(4-(3-amino-6-(tetrahydro-2H-pyran-4-yl)-1H-pyrazolo[4,3-c]pyridin-4-yl)benzyl)-5-fluoro-2-methoxybenzamide]
13 | 7.30 to 8.30 | 6.30 to 7.30 | < 6.30 | COc1ccc(F)cc1C(=O)NCc1ccc(-c2ncc(-c3nccn4cccc34)c3[nH]nc(N)c23)cc1 [Example 77, N-(4-(3-amino-7-(pyrrolo[1,2-a]pyrazin-1-yl)-1H-pyrazolo[4,3-c]pyridin-4-yl)benzyl)-5-fluoro-2-methoxybenzamide]
14 | 6.30 to 7.30 | < 6.30 | < 6.30 | COc1ccc(F)cc1C(=O)NCc1ccc(-c2nc(C(F)F)c(-c3ncccn3)c3[nH]nc(N)c23)cc1 [Example 85, N-(4-(3-amino-6-(difluoromethyl)-7-(pyrimidin-2-yl)-1H-pyrazolo[4,3-c]pyridin-4-yl)benzyl)-5-fluoro-2-methoxybenzamide]
15 | 7.30 to 8.30 | 7.30 to 8.30 | 6.30 to 7.30 | COc1ccc(F)cc1C(=O)NCc1ccc(-c2ncc(-c3cc4cnccn4n3)c3[nH]nc(N)c23)cc1 [Example 78, N-(4-(3-amino-7-(pyrazolo[1,5-a]pyrazin-2-yl)-1H-pyrazolo[4,3-c]pyridin-4-yl)benzyl)-5-fluoro-2-methoxybenzamide]
